From patent US20200010814A1, “NOVEL MONOOXYGENASE AND UTILIZATION THEREOF” (KANEKA CORPORATION, priority 2017, published 2020) come the findings set out here.

Molecules are shown by their SMILES.

This assay concerns pQAH1/pRAT1 Rhodococcus erythropolis L88. The assay is described as follows: Evaluation of substrate specificity. The conditions noted are these: 10 mM substrate, 5% glucose, 26 hours of reaction; NMR and optical rotation analyses. The format is cell-based. How it is done:
pQAH1/pRAT1 Rhodococcus erythropolis L88 was cultured in an LB medium by a method similar to that for Example 5. Expression of a protein was induced with 0.2 μg/ml of thiostrepton, and then 10 mM of each of L-isovaline, D-isovaline, L-aminobutyrate, and D-aminobutyrate was added together with 5% glucose. After 26 hours of reaction, the reaction supernatant was analyzed by the LCMS analysis method used for Example 1.
Take `CC[C@@H](N)C(=O)O` [D-aminobutyrate]: the “product of the hydroxylation reaction of the substrate” value (“product” for short) is “D-allo-threonine”. As for `CC[C@@](C)(N)C(=O)O` [D-isovaline], the “product” value is recorded as “(2R,3R)-2-methyl threonine”. As for `CC[C@H](N)C(=O)O` [L-aminobutyrate], the “product” value is reported as “L-allo-threonine”. As to `CC[C@](C)(N)C(=O)O` [L-isovaline], the “product” value is given as “(2S,3S)-2-methyl threonine”.
